From paper PMC7769561, “Antileishmanial activity of synthetic analogs of the naturally occurring quinolone alkaloid N-methyl-8-methoxyflindersin” (PLoS ONE, 2020)
Values after ≈ are worked out from the molar mass of the structure shown. Values joined by “and” are separate entries in the source; they are usually repeats but may differ in a detail not shown here. Equal values may be shown once.

How the values were obtained:
[1] = system: L. (V.) panamensis promastigotes; test: Antileishmanial activity in L. (V.) panamensis promastigotes (resazurin, 72 h); assay type: cell-based, Leishmania (Viannia) panamensis; conditions: L. (V.) panamensis promastigotes, ± SD; for EC50: read-out: EC50 Intracellular promastigotes (converted)
Procedure: They were treated with quinoline alkaloid–like compounds at a concentration of 100, 10, 1, 0.1, and 0.01 μg/mL for 72 h at 26°C. Next, we determined antileishmanial activity using the resazurin method (Sigma-Aldrich). Promastigotes treated with amphotericin B (Sigma-Aldrich) and pentamidine (Sanofi-Aventis, Gentilly, France) were used as parasite death (positive) controls. Results were expressed as the medial effective concentration (EC50) using Prism GraphPad software for nonlinear regression analysis (https://www.graphpad.com/scientific-software/prism/).
(§1) All assays required at least three independently duplicated experiments. We determined cytotoxicity against hMDMs and effectivity in L. (V) panamensis promastigotes according to each treatment’s mortality (compound and concentration) using Eq 1, where the control mean fluorescence intensity (MFI) was 100% viability: Validityinhibition(%)=100−[MIFexposedcells/MIFunexposedcells×100] (1)
(§2) We used GraphPad Prism nonlinear regression analysis to estimate the percentage mortality with regard to CC50 and EC50. […] The antileishmanial activity with regard to promastigotes was classified as active according to Eq 2: Active=EC50<[LC50/2], (2) where LC50 is the median lethal concentration. We also used GraphPad Prism nonlinear regression analysis to determine the intracellular antileishmanial activity (concentration vs. response), depending on the infection (number of infected cells) and parasite burden (number of parasites/cell) obtained in experimental conditions. Parasite inhibition was estimated using Eq 3, where the plate MFI is 100% parasites: Infectioninhibition(%)=100−[(MIFexposedparasites/MIFunexposedparasites×100)] (3)

in vitro = conditions: human
Procedure: We isolated hMDMs from buffy coats donated by the Institute of Local Science (Biotechnology and Health Innovation, Bogotá, Colombia) and spun them in Lymphoprep density gradient medium (Stem-Cell, Vancouver, Canada).
Next, we added 100 μL of this culture to each quinoline alkaloid–like compound at a concentration of 200, 20, 2, 0.2, and 0.02 μg/mL. […] Cells treated with amphotericin B (Sigma-Aldrich) were used as cell apoptosis (positive) controls. Results were expressed as the medial cytotoxic concentration (CC50) using Prism GraphPad software for nonlinear regression analysis (https://www.graphpad.com/scientific-software/prism/).
as §1, §2

[2] = system: L. (V.) panamensis intracellular amastigotes; test: Antileishmanial activity in L. (V.) panamensis intracellular amastigotes in hMDMs; assay type: cell-based, Leishmania (Viannia) panamensis; conditions: for SI (selectivity index = CC50/EC50): CC50 hMDMs / EC50 intracellular amastigotes
Procedure: Next, 100 μL of the suspension was cultured in 96-well plates and infected with L. (V.) panamensis promastigotes (HMOM/COL/87/UA-140) at a 10:1 parasite:cell ratio. We incubated the plates in a 5% CO2 atmosphere for 4 h at 35°C. After incubation, we removed noninternalized parasites by washing the cells with 0.9% NaCl saline solution (Baxter International, Deerfield, IL, USA). The cells were incubated again for 24 h and then treated with each quinoline alkaloid–like compound at a concentration of 100, 10, 1, 0.1, and 0.01 μg/mL in a 5% CO2 atmosphere for 72 h at 36°C. Next, we quantified the percentage of infected cells using fluorescence microscopy, as previously described by Pérez-Cordero in 2011 [23], and quantified the parasite load (amount of intracellular promastigotes and amastigotes per cell) using Giemsa staining and flow cytometry (Cytomics FC 500 MPL; Beckman Coulter, Brea, CA, USA). […] Results were expressed as EC50 using Prism GraphPad software’s probit nonlinear regression analysis (https://www.graphpad.com/scientific-software/prism/).
as §2
The percentage inhibition was used to calculate EC50 by nonlinear regression analysis (fluorescence microscopy), while the parasite burden was evaluated as the percentage of intracellular promastigotes and amastigotes in 100 infected cells (Giemsa staining). […] The selectivity index (SI) was estimated using the following formula: SI=CC50/EC50

[3] = system: L. (V.) panamensis intracellular amastigotes; test: as above; assay type: cell-based, Leishmania (Viannia) panamensis; conditions: 72 h, ± SD
hMDMs = test: Apoptosis in noninfected and L. (V.) panamensis-infected hMDMs (annexin V/7AAD flow cytometry); assay type: cell-based, human; conditions: compound at EC50, 72 h
Procedure: Next, the cells were fixed with 4% paraformaldehyde for evaluating dead cells using a live/dead cell viability kit (Beckton, Dickinson and Company, Franklin Lakes, NJ, USA). hMDMs cultured without any treatment were used as viability controls, while those treated with 0.01% H2O2, 10 μg/mL of lipopolysaccharide (LPS; Sigma-Aldrich), and 1% dimethyl sulfoxide (DMSO) were used as cell mortality (positive) controls. Apoptotic and necrotic cells were quantified using flow cytometry (FACS Canto II; Becton, Dickinson and Company).

[4] = system: L. (V.) panamensis intracellular amastigotes; test: Transmission electron microscopy of L. (V.) panamensis intracellular amastigotes in hMDMs; assay type: cell-based, Leishmania (Viannia) panamensis; design: Nucleus (ultrastructural alteration grade) / Vacuoles (ultrastructural alteration grade): key: -: no alteration/absence; +: low alteration/low presence; ++: alteration/moderate presence; +++: serious disturbance/abundant presence; conditions: compound at EC50, 72 h, TEM; for Cell membrane (ultrastructural alteration grade): key: -: no alteration/absence; +: low alteration/low presence; ++: alteration/moderate presence; +++: serious disturbance/abundant presence; for Flagellum (flagellar/axonema pocket) (grade): key: -: no alteration/absence; +: low alteration/low presence; ++: alteration/moderate presence; +++: serious disturbance/abundant presence; for LB (lipid bodies, grade): key: -: no alteration/absence; +: low alteration/low presence; ++: alteration/moderate presence; +++: serious disturbance/abundant presence; for Mitochondria/Kinetoplasts (ultrastructural alteration grade): key: -: no alteration/absence; +: low alteration/low presence; ++: alteration/moderate presence; +++: serious disturbance/abundant presence
Description: (§3) This procedure involved including fresh resin and 100–200-nm-wide ultrafine cuts observed by TEM (100X–10.000X) (HITACHI-HU-12; Hitachi, Tokyo, Japan).

[5] = system: L. (V.) panamensis-infected hMDMs; test: Transmission electron microscopy of L. (V.) panamensis-infected hMDMs; assay type: cell-based, human; conditions: compound at EC50, 72 h, TEM
Description: as §3

[6] = system: L. (V.) panamensis-infected hMDMs; test: NO production in L. (V.) panamensis-infected hMDMs (DAF-FM flow cytometry); assay type: cell-based, human
Procedure: (§4) Next, we detached the cells with ethylenediaminetetraacetic acid (EDTA)/trypsin (Lonza, MD, USA) and 2',7'-dichlorodihydrofluorescein diacetate (H2DCFDA) tagged on a 5 μM fluorescent tube (Sigma-Aldrich) in order to identify intracellular ROS and/or 4-amino-5-methylamino-2′,7′-difluorofluorescein (DAF-FM; Sigma-Aldrich) for NO production in a 5% CO2 atmosphere for 45 min at 37°C. ROS and NO were quantified using flow cytometry (FACS Canto II) at a wavelength of 480 nm. Untreated cells were used as negative controls, while cells treated with 0.0001% H2O2 and 1 μM phorbol myristate acetate were used as ROS production (positive) controls. LPS (10 ng/mL) and phytohemagglutinin (PHA-M) (10 μL/mL) (Invitrogen) were used as positive controls for NO production.

[7] = system: L. (V.) panamensis-infected hMDMs; test: ROS generation in L. (V.) panamensis-infected hMDMs (H2DCFDA flow cytometry); assay type: cell-based, human; conditions: compound at EC50, 4, 24, 48 and 72 h
Procedure: as §4

[8] = amastigotes in hMDMs, 72 h, ± SD

## C[C@@H]1[C@H](O)[C@@H](C)/C=C/C=C/C=C/C=C/C=C/C=C/C=C/[C@H](O[C@@H]2O[C@H](C)[C@@H](O)[C@H](N)[C@@H]2O)C[C@@H]2O[C@](O)(C[C@@H](O)C[C@@H](O)[C@H](O)CC[C@@H](O)C[C@@H](O)CC(=O)O[C@H]1C)C[C@H](O)[C@H]2C(=O)O [AMB, amphotericin B, reference compound]
[1]
  EC50: 0.3 µg/mL and 300 nM
In vitro
  CC50 at 72 h: 4.5 µg/mL and 4.9 µM
[2]
  SI (selectivity index = CC50/EC50): 11.25
[3]
  EC50: 0.4 µg/mL and 400 nM

## COc1ccc2c3c(c(=O)n(C)c2c1)C=CC(C)(C)O3 [Compound 1, N-methyl-8-methoxyflindersin]
hMDMs; L. (V.) panamensis-infected hMDMs
  Percentage of apoptotic cells (annexin V+ 7AAD–, Q3): 41.3%
hMDMs; noninfected (basal) hMDMs
  Percentage of apoptotic cells (annexin V+ 7AAD–, Q3): 20.2%
[1]
  EC50 Intracellular promastigotes: 9.9 ± 3 µg/mL (≈ 36.5 µM)
  EC50: 36.5 µM
[4]
  Cell membrane (description): Integrity damage in membrane
  Cell membrane (ultrastructural alteration grade): +++
  Flagellum (flagellar/axonema pocket) (grade): -
  LB (lipid bodies, grade): -
  Mitochondria/Kinetoplasts (ultrastructural alteration grade): -
  Nucleus (description): Nuclear membrane damage
  Nucleus (ultrastructural alteration grade): +++
  PV (description): Individuals attached to the parasite
  PV (parasitophorous vacuoles, grade): +
  Vacuoles (description): Electrodense acidocalcisome type
  Vacuoles (ultrastructural alteration grade): ++
[5]
  Cell membrane (ultrastructural modification grade): -
  LB (lipid bodies, grade): -
  Mitochondria (ultrastructural modification grade): +
  Nucleus (ultrastructural modification grade): -
  PV (description): Individuals, attached to the parasite
  PV (parasitophorous vacuoles, grade): +
  Parasites (grade): +
  Vacuoles (description): Double membrane (autophagic-digestives)
  Vacuoles (ultrastructural modification grade): ++
[6]; compound at EC50, 24, 48 and 72 h
  NO production compared to untreated infected hMDMs: increase in NO production
[6]; compound at EC50, 72 h posttreatment
  NO production: increase in NO production
[2]
  SI (selectivity index = CC50/EC50): 5.87
[2]; [8]
  EC50: 29.2 µM
  EC50 Intracellular amastigotes: 7.4 ± 1.95 µg/mL (≈ 27.3 µM)
[2]; intracellular amastigotes, class by EC50
  Antileishmanial activity class: high (high if EC50 < 25 μg/mL)
[7]
  ROS generation compared to infected control cells: no significant variations

## Cc1cc(=O)[nH]c2ccccc12 [Compound 4, 4-methyl-2-(1H)-quinolinone]
[1]
  EC50: 62.3 µg/mL and 256 µM
In vitro
  CC50 at 72 h: 95.2 µg/mL and 391 µM
[2]
  SI (selectivity index = CC50/EC50): 1.66
[3]
  EC50: 57.1 µg/mL and 256 µM
